Test results as given in PubChem BioAssay (NCI).
“And” between values parts separate entries of the source, which are not always exact repeats. Identical values can stand only once.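 In this assay, cells in 96-well plates receive the compound at five concentrations for 48 hours. Endpoints are linearly interpolated between the surrounding concentrations. GI50 is the concentration that inhibits growth by half. TGI is the concentration that stops growth completely.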

Tests used:
Assay in all cases: growth of human tumour cells (NCI), 48 h
MDA-N = tested on: MDA-N
SN12C renal = tested on: SN12C renal
HCC-2998 colon = tested on: HCC-2998 colon
MOLT-4 leukemia = tested on: MOLT-4 leukemia
OVCAR-8 ovarian = tested on: OVCAR-8 ovarian
MDA-MB-231 breast = tested on: MDA-MB-231 breast
HOP-92 NSCLC = tested on: HOP-92 NSCLC
OVCAR-4 ovarian = tested on: OVCAR-4 ovarian
RXF 393 renal = tested on: RXF 393 renal
KM20L2 colon = tested on: KM20L2 colon

| Compound | TGI (MDA-N) | TGI (SN12C renal) | TGI (HCC-2998 colon) | TGI (MOLT-4 leukemia) | TGI (OVCAR-8 ovarian) | TGI (MDA-MB-231 breast) | TGI (HOP-92 NSCLC) | TGI (OVCAR-4 ovarian) | TGI (RXF 393 renal) | TGI (KM20L2 colon) [µM] | GI50 (OVCAR-4 ovarian) [µM] | GI50 (RXF 393 renal) [µM] | GI50 (SN12C renal) [µM] | GI50 (HCC-2998 colon) [µM] | GI50 (MOLT-4 leukemia) [µM] | GI50 (OVCAR-8 ovarian) [µM] | GI50 (MDA-MB-231 breast) [µM] | GI50 (HOP-92 NSCLC) [µM] | GI50 (MDA-N) [µM] |
| --- | --- | --- | --- | --- | --- | --- | --- | --- | --- | --- | --- | --- | --- | --- | --- | --- | --- | --- | --- |
| OCC1OC(OCC(O)C(O)C(O)C(/C=N/Nc2ccccc2)=N/Nc2ccccc2)C(O)C(O)C1O (configuration not stated) | > 100 µM | > 100 µM | > 100 µM | > 100 µM | > 100 µM | > 100 µM | > 100 µM |  |  |  |  |  |  |  |  |  |  |  |  |
| CC(=O)O[C@]1(C)OC(=O)[C@@H](C)N1[N+](=O)[O-] |  | > 100 µM | > 100 µM | > 100 µM | > 100 µM |  |  | > 100 µM | > 100 µM | > 100 |  |  |  |  |  |  |  |  |  |
| CN(C)CCOc1ccc(/C(=C(/CCCl)c2ccccc2)c2ccccc2)cc1 | 30.2 µM | 6.01 µM and 30.3 µM |  |  |  |  | 17.1 µM | 5.1 µM and 32.9 µM | 1.4 µM |  | 1.47 | 0.698 | 1.57 | 0.776 | 1.12 | 1.08 | 1.07 |  |  |
| Cc1cnc(/C=N\NC(N)=S)c2cccc(N)c12 | > 100 µM | > 26.5 µM and 4.35 µM | > 100 µM | > 100 µM | > 100 µM | > 100 µM | > 100 µM | > 100 µM | > 100 µM |  | 3.4 | 2.47 | 1.51 |  | 1.5 | 2.66 | 3.2 | 2.07 |  |
| C/C(=N\N=C(\[Se])N1CCN(c2ccccn2)CC1)c1ccccn1 | 21 µM | 21.3 µM | 23.3 µM |  | 20.6 µM | 17.5 µM | 13.2 µM | 3.31 µM | 1.83 µM |  | 0.00554 |  | 0.375 |  | 0.00298 | 0.000541 |  | 0.0044 | 0.424 |
| COc1ccc2c(c1)C(=O)C(=O)c1cc(O)c(OC)c(OC)c1-2 | 1.4 µM and 2.55 µM | 1.6 µM and 3.08 µM | 10.5 µM and 14.1 µM | 0.746 µM and 5.74 µM | 1.6 µM and 2.98 µM | 1.91 µM and 3.87 µM | 1.79 µM and 3.19 µM | 1.59 µM and 2.9 µM | 1.65 µM and 3.63 µM |  | 1.56 | 1.56 | 1.71 |  | 2.38 | 1.62 | 2.1 | 1.7 | 1.28 |
| O=C(O)CCC(=O)c1ccc2ccc3cccc4ccc1c2c34 | > 100 µM | > 100 µM | > 100 µM | > 100 µM | > 100 µM | > 100 µM | > 100 µM | > 100 µM | > 100 µM |  |  |  |  |  |  |  |  |  |  |
| Cn1nnnc1N/N=C/c1ccccc1 | > 10 µM | > 10 µM | > 10 µM | > 10 µM | > 10 µM | > 10 µM | > 10 µM | > 10 µM | > 10 µM |  |  |  |  |  |  |  |  |  |  |
| Cc1c(C(=O)C/C(=N/NC(=O)C[n+]2ccccc2)C(=O)Nc2ccccc2)[n+](=O)c2ccccc2n1O |  | > 100 µM | > 100 µM | > 100 µM | > 100 µM |  |  | > 100 µM | > 100 µM | > 100 |  |  |  |  |  |  |  |  |  |
| C/C1=C/C2=CC(C)C[C@@H]2C(=O)[C@]2(C)C(=O)CC(C)(C)[C@H]2CC1=O (some centres not stated) | > 50 µM | > 50 µM | > 50 µM | > 50 µM | > 50 µM | > 50 µM | > 50 µM | > 50 µM |  |  |  |  |  |  |  |  |  |  |  |
| N#Cc1ccc(N2Cc3ccccc3OC3=C2C(=O)c2c(O)ccc(O)c2C3=O)cc1 |  | 2.16 µM | 1.79 µM | 0.76 µM | 2.5 µM | 0.994 µM | 0.409 µM | 0.793 µM | 0.313 µM |  | 0.216 | 0.157 | 0.856 | 0.762 | 0.102 | 0.336 | 0.242 | 0.163 |  |
| O=C(CN1CCN(c2ccc(Cl)cc2)CC1)N1CCN(c2nnc(-c3ccc(Cl)cc3)c(-c3ccc(Cl)cc3)n2)CC1 |  | > 100 µM | > 100 µM | > 100 µM | > 100 µM | > 100 µM | 60.4 µM | > 100 µM | 77.3 µM |  | > 100 | 23.8 | 37 | > 100 | 5.92 | > 100 | 50.8 | 22.4 |  |
| CCN1C(=O)NC(=O)C(C)(N2C(=O)c3c(F)c(F)c(F)c(F)c3C2=O)C1=O (configuration not stated) |  | 14.6 µM | 7.77 µM | 10.1 µM | 22.6 µM | 9.13 µM | 4.12 µM | 6.31 µM | 4.43 µM |  | 2.44 | 1.99 | 3.99 | 2.52 | 2.44 | 3.55 | 2.66 | 1.86 |  |
| CN(C)c1ncnc2c1nnn2C1OC(CO)C(O)C1O (configuration not stated) |  | > 100 µM |  | > 100 µM | > 100 µM | > 100 µM | 1.23 µM | > 100 µM | > 100 µM |  | 0.0558 | 0.386 | 0.479 | 0.325 | 0.0635 | 0.0759 | 0.524 | 0.186 |  |
| C=CC(C)(O)/C=C/C=C(\C)C(CC1OC1(C)C)OC(=O)/C(C)=C\C (configuration not stated) | > 100 µM | > 100 µM | > 100 µM | > 100 µM | > 100 µM | > 100 µM | > 100 µM | > 100 µM | > 100 µM |  |  |  |  |  |  |  |  |  |  |
| COC1CCC(O)C(/C=C/[N+](=O)[O-])C1 (configuration not stated) | 5.56 µM | 9.05 µM | 3.14 µM | 6.55 µM | 4.69 µM | 18.1 µM | 26.6 µM | 28.4 µM | 2.91 µM |  |  |  |  |  |  |  |  |  |  |
| CN=C(NC#N)NCCSCc1nc[nH]c1C | > 100 µM | > 100 µM | > 100 µM | > 100 µM | > 100 µM | > 100 µM | > 100 µM | > 100 µM | > 100 µM |  |  |  |  |  |  |  |  |  |  |
| CC(C)(C)c1[nH]cnc1/C=c1\[nH]c(=O)/c(=C/c2ccccc2)[nH]c1=O |  | 69.6 µM | 33.1 µM | 19.7 µM | 50.8 µM | 30.9 µM | 9.11 µM | 55.3 µM | 56.8 µM |  | 0.151 | < 0.01 | < 0.0144 | 0.0307 | 0.0215 | < 0.0125 | 0.023 | < 0.0118 |  |
